Values after ≈ are worked out from the molar mass of the structure shown. Read-outs that look alike come from different tables or passages of the source.

The conditions of series [1]: for Hygroscopicity: storage at ambient and humidity (40 C, 85-95% RH) conditions; for Hygroscopicity (85-95%): summary table, 85-95% RH, result in words.
For series [2] the following is noted: for hygroscopicity (classification from DVS): 15 to 95% RH, result in words; for hygroscopicity (classification from DVS) / Δ %weight 24 h: DVS; for Δ %weight 24 h: humidity increased stepwise from 15 to 95% RH at constant temperature; for Hygroscopicity (85-95%): summary table, same figures as Δ %weight 24 h of Table 1. As to the method: The objective was to measure the hygroscopicity of some crystalline forms of the present invention. The percentage increase of mass was calculated in order to evaluate the adsorption of water in the samples.
Dynamic Vapour Sorption (DVS) analysis is a technique specifically designed to provide information related to material response to changes in relative humidity and T°C. A Q5000 SA DVS equipment from TA Instruments was used for running the experiment.
The variation of the weight is controlled and the following percentage is calculated: Δ %weight = (Pn-P1)/P1 x 100 [formula] wherein: P1 is the initial weight , Pn is the weight measured for the sample.

For series [3] the following is noted: pH 7.4; free form; cited from earlier work.

As for `CC(C)C[C@H](CN)CC(=O)O.Cl.O=C(O)[C@@H]1CCCN1` [Example 6, (S)-Pregabalin - L-proline - HCl (1:1:1)], the Hygroscopicity result in series [1] is reported as “hygroscopic tendencies, particularly at humid conditions, to such an extent that it liquefied”. In series [2], the “hygroscopicity (classification from DVS)” value is given as “deliquescent”, the “Δ %weight 24 h” value came out at 95% and the “Hygroscopicity (85-95%)” value is recorded as 95%. The “hygroscopicity (classification from DVS)” value in series [2] (listed as sample 1) is “sufficient water was absorbed to form a liquid”.
For the molecule `CC(C)C[C@H](CN)CC(=O)O.CC(C)C[C@H](CN)CC(=O)O.O.O=C(O)/C=C\C(=O)O.O=C(O)/C=C\C(=O)O` [Example 7, (S)-Pregabalin - maleic acid - H2O (1:1:0.5)], in series [2], the “hygroscopicity (classification from DVS)” value is reported as “very hygroscopic”, the “Δ %weight 24 h” value is on record as 37,9% and the “Hygroscopicity (85-95%)” value came to 37.9%.
As for `CC(C)C[C@H](CN)CC(=O)O.CCCCCCCCCCCC(=O)O` [Example 11, (S)-Pregabalin - lauric acid (1:1)], in series [1], the Hygroscopicity result is listed as “non-hygroscopic” and the “Hygroscopicity (85-95%)” value was “Non-hygroscopic”. For the same molecule, in series [2], the “hygroscopicity (classification from DVS)” value is listed as “not hygroscopic” and the “Δ %weight 24 h” value is listed as 0%.
As for `CC(C)C[C@H](CN)CC(=O)O` [PGB free base, (S)-3-(aminomethyl)-5-methylhexanoic acid, reference compound], in series [1], the “Hygroscopicity (85-95%)” value was “Non-hygroscopic”. The solubility in water in series [3] was 32 mg/mL (≈ 201 mM).

Values taken from EP2527319A1, “Crystalline forms of pregabalin and co-formers in the treatment of pain” (Laboratorios del. Dr. Esteve, S.A., priority 2011, dated 2012).
